Measured values: patent publication US7001735B2, “Glucose transporter/sensor protein and uses thereof” (Albert Einstein College of Medicine of Yeshiva University, priority 2000, dated 2006)

What was measured:
GLUTx [1] = test: Immunocytochemical localisation of GLUTx in insulin-stimulated MTLn3 cells; assay type: cell-based, rat; conditions: insulin 500 nM, 1 h, basal state perinuclear Golgi region, data not shown
Experimental: (§1) Immunohistochemistry was performed according to protocols provided by the Dako LSAB (labeled streptoavidin biotin reagents) and Dako EnVision+System (peroxidase, DAB) kits. However, some modifications were made. In brief, tissue on a slide was deparaffinized in xylene, and rehydrated in water. For cells that were processed, the slides or coverslips containing the cells were fixed in 4% paraformaldehyde for 1 h, then washed 4 times in buffered solution (TBS). The slides were placed in 3% H2O2 for 15 min in a 37° C. water bath to quench endogenous peroxidase activity. Epitope retrieval in paraffin-embedded tissue was achieved by heating the slides to 95° C. in a pre-heated citric acid solution (0.01 M citric acid, 0.01 M sodium citrate; pH 6.0). This temperature was maintained for 15 min in a microwave on high power or in a steam bath. The slides then were cooled. At this point, processing was started for the slides containing fixed cells.
(§2) Next, the primary antibody to GLUTx was applied to the slides for 30 min at room temperature (RT). Slides were rinsed in TBS 3 times for 5 min. The slides then were incubated with secondary antibody, as provided in the kit, for 15–20 min at RT. The slides were rinsed well with PBS, and the tertiary reagent (Strep-Avidin or HRP-labeled EnVision polymer) was applied for 15–20 min at RT. […]

GLUTx [2] = test: Immunocytochemical localisation of GLUTx in insulin-stimulated MTC cells; assay type: cell-based, rat; conditions: insulin 500 nM, 1 h, basal state mainly perinuclear Golgi region, data not shown
Experimental: as §1, §2

Substance: insulin: hormone used to stimulate the cells (500 nM for 1 h)
- distribution of GLUTx (light microscopy) (GLUTx [1]): also associated with the cell membrane
- distribution of GLUTx (light microscopy) (GLUTx [2]): localized also on the cell membrane
